# Assay results reported in US10683294B2, “5-5 fused rings as C5a inhibitors” (CHEMOCENTRYX, INC., priority 2017, dated 2020).
# Molecular target: C5aR (Homo sapiens (Human), UniProt P21730)
# Assay: Chemotaxis assay (inhibition of C5aR mediated migration towards C5a)
# Assay type: cell-based
# Conditions: inhibition in the chemotaxis assay (Example 14 B.3); U937 or neutrophil cells, 0.03 nM C5a
# Experimental: U937 cells are a monocytic cell line which express C5aR, and are available from ATCC (VA). These cells were cultured as a suspension in RPMI-1640 medium supplemented with 2 mM L-glutamine, 1.5 g/L sodium bicarbonate, 4.5 g/L glucose, 10 mM HEPES, 1 mM sodium pyruvate, and 10% FBS. Cells were grown under 5% CO2/95% air, 100% humidity at 37° C. and subcultured twice weekly at 1:6 (cells were cultured at a density range of 1×10^5 to 2×10^6 cells/mL) and harvested at 1×10^6 cells/mL. Prior to assay, cells are treated overnight with 0.5 mM of cyclic AMP (Sigma, Ohio) and washed once prior to use. cAMP treated U937 cells can be used in C5aR ligand binding and functional assays.
# Optionally, human or murine neutrophils can be used to assay for compound activity. Neutrophils may be isolated from fresh human blood using density separation and centrifigation. Briefly, whole blood is incubated with equal parts 3% dextran and allowed to separate for 45 minutes. After separation, the top layer is layered on top of 15 mls of Ficoll (15 mls of Ficoll for every 30 mls of blood suspension) and centrifuged for 30 minutes at 400×g with no brake. The pellet at the bottom of the tube is then isolated and resuspended into PharmLyse RBC Lysis Buffer (BD Biosciences, San Jose, Calif.) after which the sample is again centrifuged for 10 minutes at 400×g with brake. The remaining cell pellet is resuspended as appropriate and consists of isolated neutrophils.
# Optionally, compounds may be further assayed for their ability to inhibit chemotaxis in cells. Chemotaxis assays are performed using 5 μm pore polycarbonate, polyvinylpyrrolidone-coated filters in 96-well chemotaxis chambers (Neuroprobe; Gaithersburg, Md.) using chemotaxis buffer (Hank's balanced salt solution (HBSS) and 1% FBS). C5aR ligands (i.e., C5a, R&D Systems; Minneapolis, Minn.) are use to evaluate compound mediated inhibition of C5aR mediated migration. Other chemokines (i.e., SDF-1α; R&D Systems; Minneapolis, Minn.) are used as specificity controls. The lower chamber is loaded with 29 μl of chemokine (i.e., 0.03 nM C5a) and varying amounts of compound; the top chamber contains 100,000 U937 or neutrophil cells in 20 μl. The chambers are incubated 1.5 hours at 37° C., and the number of cells in the lower chamber quantified either by direct cell counts in five high powered fields per well or by the CyQuant assay (Molecular Probes), a fluorescent dye method that measures nucleic acid content and microscopic observation.
# Sequence of C5aR (P21730 whole entry): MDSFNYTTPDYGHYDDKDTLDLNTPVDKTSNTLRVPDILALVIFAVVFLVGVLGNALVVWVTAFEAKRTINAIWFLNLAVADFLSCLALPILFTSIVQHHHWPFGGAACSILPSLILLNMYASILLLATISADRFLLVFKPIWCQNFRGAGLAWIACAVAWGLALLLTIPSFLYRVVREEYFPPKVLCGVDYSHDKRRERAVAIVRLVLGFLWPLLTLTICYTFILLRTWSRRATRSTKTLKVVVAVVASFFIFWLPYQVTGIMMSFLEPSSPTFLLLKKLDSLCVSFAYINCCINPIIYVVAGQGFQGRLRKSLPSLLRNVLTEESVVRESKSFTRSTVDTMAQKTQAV
row,SMILES,IC50
1,CCc1cccc(CC)c1-n1nc2c(c1-c1ccc(F)c3[nH]ccc13)CN(Cc1cc(C(F)(F)F)cc(C(F)(F)F)c1)C2(C)C [Compound 1.001],5 to 50 nM
2,CCc1cccc(CC)c1-n1nc2c(c1-c1cc(F)c(OC)c3[nH]ccc13)CN(Cc1ccc(C(F)(F)F)cc1C(F)(F)F)C2(C)C [Compound 1.002],< 5 nM
3,CCc1cccc(CC)c1-n1nc2c(c1-c1ccc(CO)c3[nH]ccc13)CN(Cc1ccc(C(F)(F)F)cc1C(F)(F)F)C2(C)C [Compound 1.004],< 5 nM
4,CCc1cccc(CC)c1-n1nc2c(c1-c1ccc(C(=O)O)c3[nH]ccc13)CN(Cc1ccc(C(F)(F)F)cc1C(F)(F)F)C2(C)C [Compound 1.005],≥ 500 nM
5,CCc1cccc(CC)c1-n1nc2c(c1-c1cccc3[nH]cc(F)c13)CN(Cc1ccc(C(F)(F)F)cc1C(F)(F)F)C2(C)C [Compound 1.010],5 to 50 nM
6,CCc1cccc(CC)c1-n1nc2c(c1-c1ccc(F)c3[nH]cc(Cl)c13)CN(Cc1ccc(C(F)(F)F)cc1C(F)(F)F)C2(C)C [Compound 1.011],5 to 50 nM
7,CCc1cccc(CC)c1-n1nc2c(c1-c1ccc(F)c3[nH]cc(Cl)c13)CN(Cc1ccc(Cl)cc1F)C2(C)C [Compound 1.015],5 to 50 nM
8,CCc1cccc(CC)c1-n1nc2c(c1-c1ccc(F)c3[nH]cc(Cl)c13)CN(Cc1ccc(F)cc1F)C2(C)C [Compound 1.017],< 5 nM
9,CCc1cccc(CC)c1-n1nc2c(c1-c1ccc(Cl)c3[nH]ccc13)CN(Cc1ccc(C(F)(F)F)cc1C(F)(F)F)C2(C)C [Compound 1.024],< 5 nM
10,CCc1cccc(CC)c1-n1nc2c(c1-c1ccc(C)c3[nH]ccc13)CN(Cc1ccc(C(F)(F)F)cc1C(F)(F)F)C2(C)C [Compound 1.025],< 5 nM
11,CCc1cccc(CC)c1-n1nc2c(c1-c1ccc(F)c3[nH]cc(Cl)c13)CN(Cc1ccccc1C(F)(F)F)C2(C)C [Compound 1.026],< 5 nM
12,CCc1cccc(CC)c1-n1nc2c(c1-c1cc(F)c3[nH]ccc3c1)CN(Cc1ccc(C(F)(F)F)cc1C(F)(F)F)C2(C)C [Compound 1.027],5 to 50 nM
13,CCc1cccc(CC)c1-n1nc2c(c1-c1ccc(F)c3[nH]ccc13)CN(C(=O)c1ccccn1)C2(C)C [Compound 1.028],50 to 500 nM
14,CCc1cccc(CC)c1-n1nc2c(c1-c1cc(F)cc3[nH]ccc13)CN(Cc1ccc(C(F)(F)F)cc1C(F)(F)F)C2(C)C [Compound 1.031],5 to 50 nM
15,CCc1cccc(CC)c1-n1nc2c(c1-c1cccc3[nH]cc(Cl)c13)CN(Cc1ccc(C(F)(F)F)cc1C(F)(F)F)C2(C)C [Compound 1.034],5 to 50 nM
16,CCc1cccc(CC)c1-n1nc2c(c1-c1cccc3[nH]cc(C)c13)CN(Cc1ccc(C(F)(F)F)cc1C(F)(F)F)C2(C)C [Compound 1.035],5 to 50 nM
17,CCc1cccc(CC)c1-n1nc2c(c1-c1cccc3[nH]cc(C#N)c13)CN(Cc1ccc(C(F)(F)F)cc1C(F)(F)F)C2(C)C [Compound 1.036],5 to 50 nM
18,CCc1cccc(CC)c1-n1nc2c(c1-c1c(F)cc(F)c3[nH]ccc13)CN(Cc1ccc(C(F)(F)F)cc1C(F)(F)F)C2(C)C [Compound 1.037],< 5 nM

row,SMILES,IC50
1,CCc1cccc(CC)c1-n1nc2c(c1-c1cccc3[nH]ccc13)CN(Cc1cc(C(F)(F)F)ccc1C(F)(F)F)C2(C)C [Compound 1.038],5 to 50 nM
2,CCc1cccc(CC)c1-n1nc2c(c1-c1ccc(F)c3[nH]ccc13)CN(Cc1ccc(C(F)(F)F)cc1C(F)(F)F)C2(C)C [Compound 1.039],5 to 50 nM
3,CCc1cccc(CC)c1-n1nc2c(c1-c1cccc3[nH]ccc13)CN(C(=O)Cn1nc(C(F)(F)F)cc1C)C2(C)C [Compound 1.040],≥ 500 nM
4,CCc1cccc(CC)c1-n1nc2c(c1-c1cccc3[nH]ccc13)CN(C(=O)COc1ccccc1)C2(C)C [Compound 1.041],50 to 500 nM
5,CCc1cccc(CC)c1-n1nc2c(c1-c1cccc3[nH]ccc13)CN(Cc1cc(Cl)ccc1Cl)C2(C)C [Compound 1.042],5 to 50 nM
6,CCc1cccc(CC)c1-n1nc2c(c1-c1c(F)ccc3[nH]ccc13)CN(Cc1ccc(C(F)(F)F)cc1C(F)(F)F)C2(C)C [Compound 1.043],5 to 50 nM
7,CCc1cccc(CC)c1-n1nc2c(c1-c1cccc3[nH]ccc13)CN(Cc1ccccc1C(F)(F)F)C2(C)C [Compound 1.044],5 to 50 nM
8,CCc1cccc(CC)c1-n1nc2c(c1-c1cccc3[nH]ccc13)CN(Cc1ccc(C(F)(F)F)cc1C(F)(F)F)C2(C)C [Compound 1.045],5 to 50 nM
9,CCc1cccc(CC)c1-n1nc2c(c1-c1ccc3[nH]ccc3c1)CN(Cc1cc(Cl)ccc1Cl)C2(C)C [Compound 1.046],5 to 50 nM
10,CCc1cccc(CC)c1-n1nc2c(c1-c1ccc3[nH]ccc3c1)CN(Cc1ccccc1C(F)(F)F)C2(C)C [Compound 1.047],5 to 50 nM
11,CCc1cccc(CC)c1-n1nc2c(c1-c1ccc3[nH]ccc3c1)CN(C(=O)OC(C)(C)C)C2(C)C [Compound 1.048],5 to 50 nM
12,CCc1cccc(CC)c1-n1nc2c(c1-c1ccc3[nH]ccc3c1)CN(C(c1ccccc1)C(C)(C)O)C2(C)C (stereo not drawn) [Compound 1.049],50 to 500 nM
13,CCOC(=O)C(c1ccccc1)N1Cc2c(nn(-c3c(CC)cccc3CC)c2-c2ccc3[nH]ccc3c2)C1(C)C (stereo not drawn) [Compound 1.050],5 to 50 nM
14,Cc1cccc(C)c1-n1nc2c(c1-c1ccc3[nH]cnc3c1)CN(CC(C)(C)C)C2 [Compound 1.051],≥ 500 nM
15,Cc1cccc(C)c1-n1nc2c(c1-c1ccc3[nH]ccc3c1)CN(CC(C)(C)C)C2(C)C [Compound 1.052],5 to 50 nM
16,Cc1cccc(C)c1-n1nc2c(c1-c1ccc3[nH]ccc3c1)CN(CC(C)(C)C)C2 [Compound 1.053],50 to 500 nM
17,CCOC(C)(C)C(=O)N1Cc2nn(-c3c(C)cccc3C)c(-c3ccc4[nH]ccc4c3)c2C1 [Compound 1.054],≥ 500 nM

# Now from value to compound:
row,IC50,SMILES
1,≥ 500 nM,CCc1cccc(CC)c1-n1nc2c(c1-c1ccc(F)c3[nH]ccc13)CN(C(=O)NC(C)C)C2(C)C [Compound 1.003]
2,≥ 500 nM,CCc1cccc(CC)c1-n1nc2c(c1-c1ccc(F)c3[nH]ccc13)CN(C(=O)CN)C2(C)C [Compound 1.006]
3,50 to 500 nM,CCc1cccc(CC)c1-n1nc2c(c1-c1ccc(F)c3[nH]ccc13)CN(C(=O)CNC(=O)OC(C)(C)C)C2(C)C [Compound 1.007]
4,50 to 500 nM,CCc1cccc(CC)c1-n1nc2c(c1-c1ccc(F)c3[nH]ccc13)CN(Cc1ncco1)C2(C)C [Compound 1.008]
5,50 to 500 nM,CCc1cccc(CC)c1-n1nc2c(c1-c1ccc(F)c3[nH]ccc13)CN(CC(C)(C)O)C2(C)C [Compound 1.009]
6,5 to 50 nM,CCc1cccc(CC)c1-n1nc2c(c1-c1ccc(F)c3[nH]ccc13)CN(Cc1ccc(F)cc1Cl)C2(C)C [Compound 1.012]
7,5 to 50 nM,CCc1cccc(CC)c1-n1nc2c(c1-c1ccc(F)c3[nH]ccc13)CN(Cc1ccc(F)cc1F)C2(C)C [Compound 1.013]
8,50 to 500 nM,CCc1cccc(CC)c1-n1nc2c(c1-c1ccc(F)c3[nH]ccc13)CN(Cc1ccncc1)C2(C)C [Compound 1.014]
9,50 to 500 nM,CCc1cccc(CC)c1-n1nc2c(c1-c1ccc(F)c3[nH]ccc13)CN(Cc1cccnc1)C2(C)C [Compound 1.016]
10,5 to 50 nM,CCc1cccc(CC)c1-n1nc2c(c1-c1ccc(F)c3[nH]ccc13)CN(Cc1cccc(F)c1)C2(C)C [Compound 1.018]
11,5 to 50 nM,CCc1cccc(CC)c1-n1nc2c(c1-c1ccc(F)c3[nH]ccc13)CN(Cc1ccccn1)C2(C)C [Compound 1.019]
12,5 to 50 nM,CCc1cccc(CC)c1-n1nc2c(c1-c1ccc(F)c3[nH]ccc13)CN(Cc1ccc(Cl)cc1Cl)C2(C)C [Compound 1.020]
13,< 5 nM,CCc1cccc(CC)c1-n1nc2c(c1-c1ccc(F)c3[nH]ccc13)CN(Cc1ccccc1)C2(C)C [Compound 1.021]
14,5 to 50 nM,CCc1cccc(CC)c1-n1nc2c(c1-c1ccc(F)c3[nH]ccc13)CN(Cc1ccccc1F)C2(C)C [Compound 1.022]
15,< 5 nM,CCc1cccc(CC)c1-n1nc2c(c1-c1ccc(F)c3[nH]ccc13)CN(Cc1ccc(F)cc1)C2(C)C [Compound 1.023]
16,5 to 50 nM,CCc1cccc(CC)c1-n1nc2c(c1-c1ccc(F)c3[nH]ccc13)CN(Cc1ccccc1C(F)(F)F)C2(C)C [Compound 1.029]
17,5 to 50 nM,CCc1cccc(CC)c1-n1nc2c(c1-c1ccc(F)c3[nH]ccc13)CN(C(=O)CC(C)C)C2(C)C [Compound 1.030]
18,< 5 nM,CCc1cccc(CC)c1-n1nc2c(c1-c1ccc(F)c3[nH]ccc13)CN(CC(C)(C)C)C2(C)C [Compound 1.032]
19,5 to 50 nM,CCc1cccc(CC)c1-n1nc2c(c1-c1ccc(F)c3[nH]ccc13)CN(C(=O)C(C)(C)C)C2(C)C [Compound 1.033]
